Laboratory results reported in article PMC12797155 (ACS Pharmacology & Translational Science, 2025).
Several values for one entry are separate records, joined by “and”; a condition that tells them apart may be missing. Identical values can stand only once.

Assays:
PAR4 [1] = biological target: T1, PAR4 (Homo sapiens, UniProt Q96RI0); assay: Human platelet flow cytometry assay, PAR4 activation (α-thrombin + vorapaxar); type: cell-based; settings: human platelets, α-thrombin + vorapaxar; N = 3
T1 sequence (Q96RI0 48-385): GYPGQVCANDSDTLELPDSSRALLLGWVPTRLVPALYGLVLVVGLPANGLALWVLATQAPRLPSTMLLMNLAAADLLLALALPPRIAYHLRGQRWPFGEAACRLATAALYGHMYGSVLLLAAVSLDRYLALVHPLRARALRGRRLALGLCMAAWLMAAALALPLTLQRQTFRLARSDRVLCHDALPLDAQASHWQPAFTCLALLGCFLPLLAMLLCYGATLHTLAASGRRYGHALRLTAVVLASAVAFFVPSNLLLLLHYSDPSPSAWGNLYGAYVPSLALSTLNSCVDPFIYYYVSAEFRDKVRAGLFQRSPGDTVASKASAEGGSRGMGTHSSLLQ
Source text: (§1) Same as described previously.
(§2) In the flow cytometry experiments, thrombin activates PAR4 on human platelets. […] In the flow cytometry assay, human platelets are stimulated with thrombin in the presence of either a PAR4 antagonist (BMS-3) or a PAR1 antagonist (Vorapaxar). This determines the IC50 of the test compound against PAR1 and PAR4 activation.

PAR4 [2] = assay: as above; type: cell-based; settings: alpha-thrombin flow cytometry assay, human platelets; PAR4 vs PAR1
Source text: as §1, §2

thrombin = biological target: T2, thrombin (Homo sapiens, UniProt P00734); assay: Michaelis-Menten enzyme kinetic analysis of thrombin in the presence of PAR4 antagonists; type: biochemical; set-up: unit not given here; settings: thrombin in the presence of PAR4 antagonist
T2 construct: Alpha-thrombin was ordered from Enzyme Research Laboratories; purchased Enzyme Research Laboratories (South Bend, IN)
Procedure: (§3) Chromogenic substrate, S-2238, was ordered from DiaPharma (West Chester, OH). Alpha-thrombin was ordered from Enzyme Research Laboratories (South Bend, IN). White, round, clear-bottom 96-well plates were used to run the screen. The plate was read using a BioTek Neo plate reader every minute for 60 min at a wavelength of 405 nm. The substrate control wells were subtracted from the raw counts, and the data was normalized to the thrombin enzyme control wells as a percentage. The percentages were graphed in GraphPad Prism.
To also characterize what type of inhibition was occurring with these compounds, we performed Michaelis–Menten enzyme kinetic analysis. […] This is not a surprising finding, as thrombin is believed to interact with PAR4 only at the active cleft of thrombin. PAR4 lacks the hirudin-like binding domain that PAR1 has, which enables PAR1 to have a higher affinity to thrombin.
2 Thrombin inhibition characterization of PAR4 antagonists. A) Michaelis–Menten plot depicting thrombin enzymatic activity in the presence of various PAR4 antagonists. B) Lineweaver–Burk plot of the Michaelis–Menten plot.

alpha thrombin = biological target: T3, alpha thrombin (Homo sapiens, UniProt P00734); assay: Chromogenic thrombin activity assay with substrate S-2238; type: biochemical; settings: for inhibition at 0.5 µM: read-out: inhibition of thrombin; for IC50: thrombin activity assay, N = 3, read-out: IC50 against thrombin (S-2238 Thrombin Kinetic Assay)
T3 construct: Alpha-thrombin was ordered from Enzyme Research Laboratories; purchased Enzyme Research Laboratories (South Bend, IN)
Procedure: as §3, with “Prism. To investigate thrombin inhibition, we utilized a chromogenic assay with a thrombin substrate, S-2238. Thrombin activity was measured by the production of a visible color change to substrate S-2238. Each assay run included a substrate control, where just substrate was added to the well without thrombin enzyme, an enzyme control (EC), which consisted of thrombin without any inhibitor present, and an inhibitor control (IC), which contained a known thrombin inhibitor, Argatroban.” for “Prism.”

Row | Compound | Vmax (thrombin) | IC50 (PAR4 [1]) | preference for PAR4 over PAR1 (PAR4 [2]) | inhibition at 0.5 µM (alpha thrombin) | IC50 (alpha thrombin)
1 | CC1CNc2c(cccc2S(=O)(=O)N[C@@H](CCCNC(=N)N)C(=O)N2CC[C@@H](C)C[C@@H]2C(=O)O)C1 (stereo partly drawn) [Argatroban, reference compound] |  | 65.2 nM | no preference for PAR4 over PAR1 |  | 
2 | Cn1nc(C(=O)Nc2n[nH]c(-c3c(F)cccc3F)n2)cc1C1CC1 [Compound 12] |  | ~149 nM |  | ~70% | ~71 nM and 70.6 nM
3 | O=C(Nc1n[nH]c(-c2ccc(F)cc2F)n1)c1nn(-c2ccccc2)c2c1CCCC2 [Compound 31] | 0.1010 | ~160 nM |  | ~70% | ~1000 nM and 1090 nM
4 | Hirugen [reference compound] |  |  | no preference for PAR4 over PAR1 |  | 

The next lines start with results.

Row | Vmax (thrombin) | Compound | IC50 (PAR4 [1]) | preference for PAR4 over PAR1 (PAR4 [2]) | inhibition at 0.5 µM (alpha thrombin) | IC50 (alpha thrombin)
5 | 0.08856 | COc1ccc2cc(-c3cn4nc(SC)sc4n3)oc2c1 [Compound 6PMJ] |  |  |  | 
6 | 0.08588 | Cc1nc(NC(=O)c2cc(C(=O)OC(C)(C)C)n(-c3ccccc3)n2)n[nH]1 [Compound 7] | 6600 nM |  |  | 
7 | 0.0849 | Cc1cc(C(=O)Nc2nc(-c3cccc(OC(F)F)c3)n[nH]2)nn1-c1ccccc1 [Compound 9] |  |  |  | 
8 | 0.09616 | COc1cccc(-c2nc(NC(=O)c3nn(-c4ccccc4)c4c3CCCC4)n[nH]2)c1 [Compound 32] |  |  |  | 
